Like-named read-outs stand apart in the source and are kept apart here. Each block holds one compound with its values, some of them ahead of it.
Columns and labels:
[1] = Solubility and pH of salts; conditions: for pH of a 1 percent aqueous solution: 1 percent aqueous solution of the salt; for precipitation on raising pH to 7.0: 1 percent aqueous solution, N/10 sodium hydroxide to pH 7.0
[2] = system: guinea pig bronchioles constricted by carbachol; assay: Bronchodilator Test Method II, in vitro perfused guinea pig lung; conditions: for ED50: carbachol (Doryl) 1:5 million
Experimental: In this method bronchodilator activity in vitro was determined by testing the effect of graded doses of the test compounds on guinea pig bronchioles constricted by carbachol, using the technique reported by Sollman and von Oettingen, Proc. Soc, Exp. Biol. Med., 25,692 (1928) as modified by Tainter, Pedden, and James, J. Pharm. Exp. Ther., 51, 371 (1934) and by Luduena, von Euler, Tullar, and Lands, Arch. intern. Pharmacol., III, 392 (1957).

[3] = system: carbachol- or histamine-induced bronchoconstriction; assay: Bronchodilator Test Method I, anesthetized dog, intravenous activity; type: in vivo; conditions: Canis lupus familiaris, read-out: Bronchodilatation; for inhibition in vivo at 0.0055 mg/kg: 5.5 mcg/kg i.v.; for inhibition in vivo at 0.0285 mg/kg: 28.5 mcg/kg i.v.; for inhibition in vivo at 0.114 mg/kg: 114 mcg/kg i.v.; for inhibition in vivo at 0.228 mg/kg: 228 mcg/kg i.v.; for inhibition in vivo at 0.0056 mg/kg: 5.6 mcg/kg i.v.; for inhibition in vivo at 0.0112 mg/kg: 11.2 mcg/kg i.v.; for inhibition in vivo at 0.112 mg/kg: 112.0 mcg/kg i.v.; for inhibition in vivo at 0.0224 mg/kg: 22.4 mcg/kg i.v.; for inhibition in vivo at 0.0012 mg/kg: 1.2 mcg/kg i.v.; for inhibition in vivo at 0.003 mg/kg: 3.0 mcg/kg i.v.
Procedure, shortened: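 Pentobarbital-anesthetized (30 mg/kg i.v.), open-chest, artificially ventilated dogs were given i.v. carbachol (4-6 µg/kg) or histamine diphosphate (35-45 µg/kg). Test compound was given i.v. mixed with, after, or 1-10 min before the constrictor.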

[4] = 1 percent solution in dimethyl sulfoxide
[5] = 1 percent solution in glycerol formal

solubility ([1]; water): ≥ 10000 µg/mL
SMILES: CC(C)(C)CC(=O)Oc1ccc(C(O)CNC(C)(C)C)cc1OC(=O)CC(C)(C)C.Cl (stereo not drawn) [Example 7, 3,4-bis(3,3-dimethylbutanoyloxy)-alpha-(tert-butylaminomethyl)benzyl alcohol hydrochloride]
ED50 [2]: 23 µg (base) | Duration, Mean ([2]; dose 32 mcg (base)): 85 ± 17 min | inhibition in vivo at 0.0285 mg/kg ([3]; 5 min, 5 min): 28% | inhibition in vivo at 0.114 mg/kg ([3]; 5 min, 5 min): 52% | inhibition in vivo at 0.228 mg/kg ([3]; 5 min, 5 min): 98% | inhibition in vivo at 0.0285 mg/kg ([3]; 0.5 h, 30 min): 32% | inhibition in vivo at 0.114 mg/kg ([3]; 0.5 h, 30 min): 42% | inhibition in vivo at 0.228 mg/kg ([3]; 0.5 h, 30 min): 77% | inhibition in vivo at 0.0285 mg/kg ([3]; 1 h, 60 min): 24% | inhibition in vivo at 0.114 mg/kg ([3]; 1 h, 60 min): 33% | inhibition in vivo at 0.228 mg/kg ([3]; 1 h, 60 min): 68% | inhibition in vivo at 0.0285 mg/kg ([3]; 2 h, 120 min): 24% | inhibition in vivo at 0.114 mg/kg ([3]; 2 h, 120 min): 25% | inhibition in vivo at 0.228 mg/kg ([3]; 2 h, 120 min): 56% | inhibition in vivo at 0.0285 mg/kg ([3]; 3 h, 180 min): 22% | inhibition in vivo at 0.114 mg/kg ([3]; 3 h, 180 min): 19% | inhibition in vivo at 0.228 mg/kg ([3]; 3 h, 180 min): 50% | inhibition in vivo at 0.0285 mg/kg ([3]; 4 h, 240 min): 23% | inhibition in vivo at 0.228 mg/kg ([3]; 4 h, 240 min): 44%

solubility ([1]; water): ≥ 50000 µg/mL
SMILES: CC(C)(C)NCC(O)c1ccc(OC(=O)C(C)(C)C)c(OC(=O)C(C)(C)C)c1.Cl (stereo not drawn) [Example 5, 3,4-bis(pivalyloxy)-alpha-(tert-butylaminomethyl)benzyl alcohol hydrochloride]
ED50 ([2]; hydrochloride): 0.94 µg (base) | Duration, Mean ([2]; dose 2 mcg (base)): 18 ± 4.2 min | inhibition in vivo at 0.0028 mg/kg ([3]; 5 min, 2.8 mcg/kg i.v., 5 min): 14% | inhibition in vivo at 0.0056 mg/kg ([3]; 5 min, 5 min): 53% | inhibition in vivo at 0.0112 mg/kg ([3]; 5 min, 5 min): 57% | inhibition in vivo at 0.112 mg/kg ([3]; 5 min, 5 min): 100% | inhibition in vivo at 0.0056 mg/kg ([3]; 0.5 h, 30 min): 27% | inhibition in vivo at 0.0112 mg/kg ([3]; 0.5 h, 30 min): 30% | inhibition in vivo at 0.0224 mg/kg ([3]; 0.5 h, 30 min): 81% | inhibition in vivo at 0.112 mg/kg ([3]; 0.5 h, 30 min): 92% | inhibition in vivo at 0.0056 mg/kg ([3]; 1 h, 60 min): 26% | inhibition in vivo at 0.0112 mg/kg ([3]; 1 h, 60 min): 4% | inhibition in vivo at 0.0224 mg/kg ([3]; 1 h, 60 min): 62% | inhibition in vivo at 0.112 mg/kg ([3]; 1 h, 60 min): 59% | inhibition in vivo at 0.0224 mg/kg ([3]; 2 h, 120 min): 62% | inhibition in vivo at 0.112 mg/kg ([3]; 2 h, 120 min): 13% | inhibition in vivo at 0.0224 mg/kg ([3]; 3 h, 180 min): 15% | inhibition in vivo at 0.0224 mg/kg ([3]; 4 h, 240 min): 0%

precipitation on dilution with three volumes of water [1, 4]: no precipitate formed | precipitation on dilution with three volumes of water [1, 5]: no precipitate formed | solubility ([1]; dimethyl sulfoxide, organic solvent or mixture): ≥ 10000 µg/mL | solubility ([1]; glycerol formal, organic solvent or mixture): ≥ 10000 µg/mL
SMILES: CC(C)(C)NCC(O)c1ccc(OC(=O)c2ccccc2)c(OC(=O)c2ccccc2)c1.Cl (stereo not drawn) [Example 29, 3,4-bis(benzoyloxy)-alpha-(tert-butylaminomethyl)benzyl alcohol hydrochloride]
ED50 [2]: 1.1 µg (base) | Duration, Mean ([2]; dose 3.2 mcg (base)): 34 ± 6.4 min

precipitation on dilution with three volumes of water [1, 4]: no precipitate formed | solubility ([1]; polyethyleneglycol, organic solvent or mixture): < 1000 µg/mL | solubility ([1]; water): < 1000 µg/mL
SMILES: CC(C)(C)NCC(O)c1ccc(OC(=O)C2CCCCC2)c(OC(=O)C2CCCCC2)c1.Cl (stereo not drawn) [Example 15, 3,4-bis(cyclohexanecarbonyloxy)-alpha-(tert-butylaminomethyl)benzyl alcohol hydrochloride]
ED50 [2]: 1.3 µg (base) | Duration, Mean ([2]; dose 3.2 mcg (base)): 53 ± 7 min | inhibition in vivo at 0.0012 mg/kg ([3]; 2 min, 2 min): 20% | inhibition in vivo at 0.003 mg/kg ([3]; 2 min, 2 min): 36% | inhibition in vivo at 0.0012 mg/kg ([3]; 0.5 h, 30 min): 27% | inhibition in vivo at 0.0012 mg/kg ([3]; 1 h, 60 min): 8% | inhibition in vivo at 0.003 mg/kg ([3]; 1 h, 60 min): 31% | inhibition in vivo at 0.0012 mg/kg ([3]; 2 h, 120 min): 0% | inhibition in vivo at 0.003 mg/kg ([3]; 2 h, 120 min): 26% | inhibition in vivo at 0.003 mg/kg ([3]; 3 h, 180 min): 20%

precipitation on dilution with three volumes of water [1, 4]: no precipitate formed | precipitation on dilution with three volumes of water [1, 5]: no precipitate formed | solubility ([1]; polyethyleneglycol 200, organic solvent or mixture): < 10000 µg/mL
SMILES: COc1ccc(C(=O)Oc2ccc(C(O)CNC(C)(C)C)cc2OC(=O)c2ccc(OC)cc2)cc1.Cl (stereo not drawn) [Example 33, 3,4-bis(p-anisoyloxy)-alpha-(tert-butylaminomethyl)benzyl alcohol hydrochloride]
ED50 [2]: 6.9 µg (base) | Duration, Mean ([2]; dose 10 mcg (base)): 32 ± 5 min

More lines, now with the values behind:

SMILES: CCC(C)C(=O)Oc1ccc(C(O)CNC(C)(C)C)cc1OC(=O)C(C)CC.Cl (stereo not drawn) [Example 4, 3,4-bis(2-methylbutanoyloxy)-alpha-(tert-butylaminomethyl)benzyl alcohol hydrochloride]
solubility ([1]; water): ≥ 50000 µg/mL | ED50 [2]: 0.45 µg (base) | Duration, Mean ([2]; dose 1 mcg (base)): 20 ± 3 min | inhibition in vivo at 0.0055 mg/kg ([3]; 2 min, 2 min): 48% | inhibition in vivo at 0.0055 mg/kg ([3]; 0.5 h, 30 min): 5% | inhibition in vivo at 0.0055 mg/kg ([3]; 1 h, 60 min): 0%

SMILES: CC(C)CC(=O)Oc1ccc(C(O)CNC(C)(C)C)cc1OC(=O)CC(C)C.Cl (stereo not drawn) [Example 3, 3,4-bis(isovaleryloxy)-alpha-(tert-butylaminomethyl)-benzyl alcohol hydrochloride]
pH of a 1 percent aqueous solution [1]: 5.4 | precipitation on raising pH to 7.0 [1]: a precipitate formed | solubility ([1]; water): ≥ 200000 µg/mL | ED50 [2]: 0.6 µg (base) | Duration, Mean ([2]; dose 1.2 mcg (base)): 18 ± 4 min | inhibition in vivo at 0.00055 mg/kg ([3]; 1 min, 0.55 mcg/kg i.v., 1-2 min): 32% | inhibition in vivo at 0.0011 mg/kg ([3]; 1 min, 1.1 mcg/kg i.v., 1-2 min): 54% | inhibition in vivo at 0.0022 mg/kg ([3]; 1 min, 2.2 mcg/kg i.v., 1-2 min): 74%

SMILES: CC(C)CC(=O)Oc1ccc(C(O)CNC(C)(C)C)cc1O (stereo not drawn) [Example 58, 3-hydroxy-4-(isovaleryloxy)-alpha-(tert-butylaminomethyl)benzyl alcohol methanesulfonate]
solubility ([1]; water): ≥ 50000 µg/mL | ED50 [2]: 1.4 µg (base) | Duration, Mean ([2]; dose 2.4 mcg (base)): 12 ± 2.5 min

SMILES: CCCC(=O)Oc1ccc(C(O)CNC(C)(C)C)cc1OC(=O)CCC.Cl (stereo not drawn) [Example 1, 3,4-bis(butyryloxy)-alpha-(tert-butylaminomethyl)benzyl alcohol hydrochloride]
pH of a 1 percent aqueous solution [1]: 6.0 | precipitation on raising pH to 7.0 [1]: a precipitate formed | solubility ([1]; water): ≥ 200000 µg/mL | ED50 [2]: 0.23 µg (base) | Duration, Mean ([2]; dose 0.5 mcg (base)): 9 ± 1.0 min
